Experimental data published in US11865108B2, “Nitrogen containing bicyclic compounds” (Wockhardt Limited, priority 2019, dated 2024).
≈ marks a conversion by molar mass, not a printed value.

What was measured:
K. pneumoniae H 523 = experiment: Agar dilution MIC, K. pneumoniae H 523; type: cell-based; settings: Klebsiella pneumoniae, H523
Description: (§1) The biological activity of representative compounds according to the invention against various bacterial strains was investigated. In a typical study, overnight grown bacterial cultures were diluted appropriately and inoculated on the agar media containing doubling dilutions of the test compounds. Observations for growth or no growth was performed after 16-20 hours of incubation at 35±2° C. in the ambient air. The overall procedure was performed as per Clinical and Laboratory Standards Institute (CLSI) recommendations, (Clinical and Laboratory Standards Institute (CLSI), Performance Standards for Antimicrobial Susceptibility Testing, 20th Informational Supplement, M07-A9, Volume 32, No. 2, 2012). Molten Mueller Hinton Agar (MHA) (BD, USA) containing serial dilutions of each antibacterial agent were poured on to the plates and allowed to solidify. Appropriate suspensions from the freshly grown cultures were prepared in normal saline so that about 10^4 CFU/spot of the organism was delivered on to the drug containing agar plates using automated multipoint inoculator (Mast, UK). The plates were incubated in Biochemical oxygen demand (BOD) incubator at 37° C. for 18 hours and then examined for growth. […] The Table 2 depicts the antibacterial activity profile of compounds according to present invention against various multidrug resistant bacterial strains.

E. Coli 13353 = experiment: Agar dilution MIC, E. Coli 13353; type: cell-based; settings: Escherichia coli
Description: as §1

E. Coli M 138 = experiment: Agar dilution MIC, E. Coli M 138; type: cell-based; settings: Escherichia coli
Description: as §1

K. pneumoniae H 521 = experiment: Agar dilution MIC, K. pneumoniae H 521; type: cell-based; settings: Klebsiella pneumoniae, H521
Description: as §1

E. Coli M 50 = experiment: Agar dilution MIC, E. Coli M 50; type: cell-based; settings: Escherichia coli
Description: as §1

E. Coli M 36 = experiment: Agar dilution MIC, E. Coli M 36; type: cell-based; settings: Escherichia coli
Description: as §1

KP ATCC 700603 = experiment: Agar dilution MIC, KP ATCC 700603; type: cell-based, K. pneumoniae; settings: Klebsiella pneumoniae, ATCC700603
Description: as §1

E. Coli 13352 = experiment: Agar dilution MIC, E. Coli 13352; type: cell-based; settings: Escherichia coli
Description: as §1

E. Coli M 49 = experiment: Agar dilution MIC, E. Coli M 49; type: cell-based; settings: Escherichia coli
Description: as §1

E. Coli 7 MP = experiment: Agar dilution MIC, E. Coli 7 MP; type: cell-based; settings: Escherichia coli
Description: as §1

K. pneumoniae H 525 = experiment: Agar dilution MIC, K. pneumoniae H 525; type: cell-based; settings: Klebsiella pneumoniae, H525
Description: as §1

E. Coli S 18 = experiment: Agar dilution MIC, E. Coli S 18; type: cell-based; settings: Escherichia coli
Description: as §1

K. pneumoniae H 522 = experiment: Agar dilution MIC, K. pneumoniae H 522; type: cell-based; settings: Klebsiella pneumoniae, H522
Description: as §1

E. Coli 13351 = experiment: Agar dilution MIC, E. Coli 13351; type: cell-based; settings: Escherichia coli
Description: as §1

K. pneumoniae B 88 = experiment: MIC alone and in combination, K. pneumoniae B 88; type: cell-based; settings: Klebsiella pneumoniae, B88, 18 h, beta lactamase NDM, ESBL, alone or in combination as labelled
Description: as §1
(§2) The antibacterial activity of compounds according to the invention was also investigated in combination with several antibacterial agents. For example, antibacterial activity of the representative compounds of Formula (I) (Example 1 and Example 2) in combination with Ceftazidime and Cefixime are summarized in Table 3.

K. pneumoniae NCTC 13443 = experiment: MIC alone and in combination, K. pneumoniae NCTC 13443; type: cell-based; settings: Klebsiella pneumoniae, NCTC13443, 18 h, beta lactamase NDM, ESBL, alone or in combination as labelled
Description: as §1, §2

[1] = system: Multi Drug Resistant (MDR) Gram negative strains; experiment: Antibacterial activity alone and in combination, summary of Table 3; type: cell-based, K. pneumoniae
Description: as §1, §2

K. pneumoniae S 465 = experiment: MIC alone and in combination, K. pneumoniae S 465; type: cell-based; settings: Klebsiella pneumoniae, S465, 18 h, beta lactamase OXA-181, ESBL, alone or in combination as labelled
Description: as §1, §2

K. pneumoniae NCTC 13439 = experiment: MIC alone and in combination, K. pneumoniae NCTC 13439; type: cell-based; settings: Klebsiella pneumoniae, NCTC13439, 18 h, beta lactamase VIM-1, alone or in combination as labelled
Description: as §1, §2

K. pneumoniae B 77 = experiment: MIC alone and in combination, K. pneumoniae B 77; type: cell-based; settings: Klebsiella pneumoniae, B77, 18 h, beta lactamase NDM, ESBL, alone or in combination as labelled
Description: as §1, §2

| SMILES | MIC (K. pneumoniae H 523) [µg/mL] | MIC (E. Coli 13353) [µg/mL] | MIC (E. Coli M 138) [µg/mL] | MIC (K. pneumoniae H 521) [µg/mL] | MIC (E. Coli M 50) [µg/mL] | MIC (E. Coli M 36) [µg/mL] | MIC (KP ATCC 700603) [µg/mL] | MIC (E. Coli 13352) [µg/mL] | MIC (E. Coli M 49) [µg/mL] | MIC (E. Coli 7 MP) [µg/mL] | MIC (K. pneumoniae H 525) [µg/mL] | MIC (E. Coli S 18) [µg/mL] | MIC (K. pneumoniae H 522) [µg/mL] | MIC (E. Coli 13351) [µg/mL] | further results |
| --- | --- | --- | --- | --- | --- | --- | --- | --- | --- | --- | --- | --- | --- | --- | --- |
| O=C(NOC[C@H]1C[C@H](CO)CN1)[C@@H]1CC[C@@H]2CN1C(=O)N2OS(=O)(=O)O [Example 7] | 1 (≈ 2.54 µM) | 1 (≈ 2.54 µM) | 1 (≈ 2.54 µM) | 2 (≈ 5.07 µM) | 1 (≈ 2.54 µM) | 1 (≈ 2.54 µM) | > 32 | 2 (≈ 5.07 µM) | 4 (≈ 10.1 µM) | 2 (≈ 5.07 µM) | 1 (≈ 2.54 µM) | 1 (≈ 2.54 µM) | 2 (≈ 5.07 µM) | 1 (≈ 2.54 µM) |  |
| O=C(NOC[C@@H]1C[C@H](CO)CN1)[C@@H]1CC[C@@H]2CN1C(=O)N2OS(=O)(=O)O [Example 6] | 2 (≈ 5.07 µM) | 1 (≈ 2.54 µM) | 1 (≈ 2.54 µM) | 2 (≈ 5.07 µM) | 1 (≈ 2.54 µM) | 1 (≈ 2.54 µM) | > 32 | 2 (≈ 5.07 µM) | 4 (≈ 10.1 µM) | 2 (≈ 5.07 µM) | 1 (≈ 2.54 µM) | 1 (≈ 2.54 µM) | 2 (≈ 5.07 µM) | 1 (≈ 2.54 µM) |  |
| C[C@@H]1CN[C@@H](CONC(=O)[C@@H]2CC[C@@H]3CN2C(=O)N3OS(=O)(=O)O)C1 [Example 3, (2S,5R)—N-{[(2R,4S)-4-Methyl-pyrrolidin-2-yl]methyloxy}-7-oxo-6-(sulfooxy)-1,6-diazabicyclo[3.2.1]octane-2-carboxamide] | 0.5 (≈ 1.32 µM) | 0.5 (≈ 1.32 µM) | 0.5 (≈ 1.32 µM) | 1 (≈ 2.64 µM) | 0.5 (≈ 1.32 µM) | 0.5 (≈ 1.32 µM) | > 32 | 1 (≈ 2.64 µM) | 4 (≈ 10.6 µM) | 2 (≈ 5.29 µM) | 0.5 (≈ 1.32 µM) | 1 (≈ 2.64 µM) | 1 (≈ 2.64 µM) | 1 (≈ 2.64 µM) |  |
| O=C(NOC[C@H]1C[C@@H](CO)CN1)[C@@H]1CC[C@@H]2CN1C(=O)N2OS(=O)(=O)O [Example 8] | 1 (≈ 2.54 µM) | 1 (≈ 2.54 µM) | 1 (≈ 2.54 µM) | 4 (≈ 10.1 µM) | 1 (≈ 2.54 µM) | 1 (≈ 2.54 µM) | > 32 | 4 (≈ 10.1 µM) | 4 (≈ 10.1 µM) | 4 (≈ 10.1 µM) | 1 (≈ 2.54 µM) | 2 (≈ 5.07 µM) | 8 (≈ 20.3 µM) | 2 (≈ 5.07 µM) |  |
| C[C@H]1CN[C@H](CONC(=O)[C@@H]2CC[C@@H]3CN2C(=O)N3OS(=O)(=O)O)C1 [Example 1, (2S,5R)—N-{[(2S,4R)-4-methylpyrrolidin-2-yl]methyloxy}-7-oxo-6-(sulfooxy)-1,6-diazabicyclo[3.2.1]octane-2-carboxamide] | 0.5 (≈ 1.32 µM) | 0.5 (≈ 1.32 µM) | 0.5 (≈ 1.32 µM) | 1 (≈ 2.64 µM) | 0.5 (≈ 1.32 µM) | 0.5 (≈ 1.32 µM) | > 32 | 1 (≈ 2.64 µM) | 4 (≈ 10.6 µM) | 1 (≈ 2.64 µM) | 0.5 (≈ 1.32 µM) | 1 (≈ 2.64 µM) | 1 (≈ 2.64 µM) | 1 (≈ 2.64 µM) | MIC (K. pneumoniae B 88): > 32 µg/mL; MIC (K. pneumoniae NCTC 13443): > 32 µg/mL; antibacterial effect in combination ([1]; in combination with Ceftazidime and Cefixime, highly resistant bacterial strains): unusual and unexpected synergistic antibacterial effect; antibacterial activity when used alone ([1]; used alone, strains of Table 3): did not exhibit significant antibacterial activity; MIC (K. pneumoniae S 465): > 32 µg/mL; melting point: 172 to 174 °C (dec.); MIC (K. pneumoniae NCTC 13439): > 32 µg/mL; MIC (K. pneumoniae B 77): > 32 µg/mL |
| O=C(NOC[C@@H]1C[C@@H](CO)CN1)[C@@H]1CC[C@@H]2CN1C(=O)N2OS(=O)(=O)O [Example 5] | 1 (≈ 2.54 µM) | 1 (≈ 2.54 µM) | 1 (≈ 2.54 µM) | 1 (≈ 2.54 µM) | 1 (≈ 2.54 µM) | 1 (≈ 2.54 µM) | > 32 | 2 (≈ 5.07 µM) | 4 (≈ 10.1 µM) | 2 (≈ 5.07 µM) | 1 (≈ 2.54 µM) | 1 (≈ 2.54 µM) | 1 (≈ 2.54 µM) | 1 (≈ 2.54 µM) |  |
